In ChEMBL document CHEMBL3580645, “Antiviral Activity of Flexibilane and Tigliane Diterpenoids from Stillingia lineata” (J Nat Prod, 2015):

What was measured:
[1] = tested on: Chikungunya virus; assay: microbe, parasite or virus in culture; conditions: strain 899, Vero
[2] = tested on: Human immunodeficiency virus 2; assay: microbe, parasite or virus in culture; conditions: Human immunodeficiency virus 2, ISOLATE ROD, MT4, 120 h
[3] = in vitro; conditions: monkey, Vero cells
[4] = tested on: HCT-116; assay: Cytotoxicity against human HCT116 cells at 1 uM after 72 hrs by MTS assay; format: functional; conditions: HCT-116, 72 h
[5] = tested on: MCF7; assay: Cytotoxicity against human MCF7 cells at 1 uM after 72 hrs by MTS assay; format: functional; conditions: MCF7, 72 h
[6] = in vitro; conditions: chlorocebus sabaeus, Vero cells
[7] = in vitro; conditions: human, MT4 cells
[8] = in vitro; conditions: human, MT4 cells; remark: listed apart in the source
[9] = tested on: Human immunodeficiency virus 1; assay: microbe, parasite or virus in culture; conditions: Human immunodeficiency virus 1, 3B, MT4, 120 h
[10] = tested on: PC-3; assay: Cytotoxicity against human PC3 cells at 1 uM after 72 hrs by MTS assay; format: functional; conditions: PC-3, 72 h
[11] = in vitro; conditions: human, MT4 cells; remark: listed apart in the source
[12] = tested on: Semliki Forest virus; assay: microbe, parasite or virus in culture; conditions: strain Vietnam, Vero
[13] = tested on: Sindbis virus; assay: microbe, parasite or virus in culture; conditions: strain HRsp, Vero
[14] = in vitro; conditions: monkey, Vero cells; remark: listed apart in the source

Row | Structure (SMILES) | EC50 [1] [µM] | EC50 [2] [µM] | selectivity ratio [3] | inhibition at 1 µM [4] [%] | inhibition at 1 µM [5] [%] | CC50 at 72 h [6] [µM] | selectivity ratio [7] | CC50 at 72 h [8] [µM] | EC50 [9] [µM] | inhibition at 1 µM [10] [%] | selectivity ratio [11] | EC50 [12] [µM] | EC50 [13] [µM] | selectivity ratio [14]
1 | CCC(C)C(=O)O[C@@]12[C@H](OC(C)=O)[C@@H](C)[C@]3(O)[C@@H]4C=C(C)C(=O)[C@@H]4CC(CO)=C[C@H]3[C@@H]1C2(C)C (stereo not given in full) | 77 | 13 | 1.4 | < 40 | < 40 | 105 | 4 | 85 | > 85 | < 40 | – | – | – | –
2 | CCC(C)C(=O)O[C@@]12[C@H](OC(C)=O)[C@@H](C)[C@@]3(O)[C@@H](C=C(CO)C[C@]4(O)C(=O)C(C)=C[C@@H]34)[C@@H]1C2(C)C (stereo not given in full) | 3.3 | 0.107 | 41 | < 40 | < 40 | 134 | 949 | 102 | 0.271 | < 40 | 376 | > 255 | > 255 | –
3 | CC/C=C/C=C/C=C\C(=O)O[C@@H]1[C@@H](C)[C@]2(O)[C@@H]3C=C(C)C(=O)[C@@H]3CC(CO)=C[C@H]2[C@@H]2C(C)(C)[C@]12OC(=O)CCC | 1.4 | 0.174 | 5.1 | < 40 | < 40 | 7.1 | 33 | 8.4 | 0.233 | < 40 | 36 | > 177 | 5 | 1.4
4 | CCCCCCCCC(=O)/C=C/C=C/C=C/C(=O)O[C@@]12C[C@@H](C)[C@@]3(O)[C@@H](C=C(CO)C[C@]4(O)C(=O)C(C)=C[C@@H]34)[C@@H]1C2(C)C | 2.2 | 0.018 | 5.9 | < 40 | < 40 | 13 | 1430 | 13 | 0.043 | < 40 | 299 | > 168 | 11 | 1.2
5 | CCC(C)C(=O)O[C@@]12C[C@@H](C)[C@@]3(O)[C@@H](C=C(CO)C[C@]4(O)C(=O)C(C)=C[C@@H]34)[C@@H]1C2(C)C (stereo not given in full) | 1.2 | 0.056 | > 240 | < 40 | < 40 | > 289 | 2060 | 116 | 0.129 | < 40 | 899 | > 289 | > 289 | –
6 | CCN(CC)CCCC(C)Nc1ccnc2cc(Cl)ccc12 (stereo not given) [CHLOROQUINE] | – | – | – | – | – | 89 | – | – | – | – | – | – | – | –
7 | O=c1[nH]cnc2c1ncn2[C@H]1CC[C@@H](CO)O1 [DIDANOSINE] | – | 9.6 | – | – | – | – | > 5.2 | > 50 | 10.8 | – | > 4.6 | – | – | –
8 | Nc1ccn([C@@H]2CS[C@H](CO)O2)c(=O)n1 [LAMIVUDINE] | – | 15.5 | – | – | – | – | > 5.6 | > 87 | 3.9 | – | > 22 | – | – | –
9 | Cc1ccnc2c1NC(=O)c1cccnc1N2C1CC1 [NEVIRAPINE] | – | > 15 | – | – | – | – | – | > 15 | 0.01 | – | 148 | – | – | –
10 | Cc1cn([C@H]2C[C@H](N=[N+]=[N-])[C@@H](CO)O2)c(=O)[nH]c1=O [ZIDOVUDINE] | – | – | – | – | – | – | – | > 25 | – | – | – | – | – | –
